# Reference: publication PMC11091072, “Targeting bacterial nickel transport with aspergillomarasmine A suppresses virulence-associated Ni-dependent enzymes” (Nature Communications, 2024)
# Where “and” joins values, the source holds several entries; their conditions need not be identical. Equal entries are not always repeated. Where two headings read alike, the source gives them in different places. Peptide text beside a SMILES is read from it. * marks the point of attachment. Cbz = O=C(OCc1ccccc1)*
# Tests used:
# HEK293 cells = experiment: HEK293 cytotoxicity assay (Cell Titer Glo 2.0)
# NikA [1] = biological target: NikA (Klebsiella pneumoniae, UniProt A6TFA3); type: binding; conditions: for n (stoichiometry, ITC) / ∆H / −T∆S / ∆G: 37 °C; for n (stoichiometry, ITC) / ∆H / −T∆S / -∆TS / ∆G: pH 7.5; for -∆TS: Fig S13, 37 °C; for Kd: read-out: KD for NikA (ITC), 25 mM Tris-HCl, 150 mM NaCl, 0.1% Triton X-100, pH 7.5, 37 °C; for fold improvement of affinity for NikA: relative to Zn-AMA
# Sequence of NikA (Klebsiella pneumoniae, UniProt A6TFA3) (A6TFA3 entry or part of it): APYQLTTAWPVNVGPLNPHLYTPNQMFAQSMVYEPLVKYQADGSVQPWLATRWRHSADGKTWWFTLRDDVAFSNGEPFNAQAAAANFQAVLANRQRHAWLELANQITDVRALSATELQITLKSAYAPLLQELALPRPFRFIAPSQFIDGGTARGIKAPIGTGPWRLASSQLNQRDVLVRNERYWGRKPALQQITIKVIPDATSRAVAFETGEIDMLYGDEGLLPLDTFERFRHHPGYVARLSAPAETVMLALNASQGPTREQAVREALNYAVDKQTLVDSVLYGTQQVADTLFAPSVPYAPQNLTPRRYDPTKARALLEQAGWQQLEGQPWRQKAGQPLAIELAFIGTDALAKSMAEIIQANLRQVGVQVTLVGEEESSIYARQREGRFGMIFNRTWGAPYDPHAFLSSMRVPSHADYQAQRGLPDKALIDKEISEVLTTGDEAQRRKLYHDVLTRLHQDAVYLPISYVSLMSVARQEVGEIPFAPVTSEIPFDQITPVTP
# [2] = system: K. pneumoniae urease activity (whole cell); experiment: microbe, parasite or virus in culture; type: cell-based, Klebsiella pneumoniae ATCC 33495; conditions: for EC50: Klebsiella pneumoniae, read-out: EC50, half-maximal effective concentration required to suppress urease-dependent pH change; for K. pneumoniae urease-dependent pH change (pH): 37 °C
# urease = biological target: T1, urease (Klebsiella pneumoniae subsp. pneumoniae, UniProt A6TE40+A6TE41+A6TE42); experiment: Urease activity in cell-free extracts (NH3 release, indophenol-hypochlorite); type: biochemical
# T1 construct: endogenous in cells; host or cells: Klebsiella pneumoniae (ATCC 33495), sonicated and cleared lysate
# T1 sequence (A6TE41 whole entry): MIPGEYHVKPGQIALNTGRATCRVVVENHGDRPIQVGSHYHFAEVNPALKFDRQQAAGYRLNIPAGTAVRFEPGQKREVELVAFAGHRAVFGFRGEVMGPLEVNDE
# T1 sequence (A6TE40 whole entry): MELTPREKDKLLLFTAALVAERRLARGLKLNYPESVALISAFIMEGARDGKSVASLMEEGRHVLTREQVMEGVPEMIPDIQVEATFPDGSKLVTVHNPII
# T1 sequence (A6TE42 whole entry): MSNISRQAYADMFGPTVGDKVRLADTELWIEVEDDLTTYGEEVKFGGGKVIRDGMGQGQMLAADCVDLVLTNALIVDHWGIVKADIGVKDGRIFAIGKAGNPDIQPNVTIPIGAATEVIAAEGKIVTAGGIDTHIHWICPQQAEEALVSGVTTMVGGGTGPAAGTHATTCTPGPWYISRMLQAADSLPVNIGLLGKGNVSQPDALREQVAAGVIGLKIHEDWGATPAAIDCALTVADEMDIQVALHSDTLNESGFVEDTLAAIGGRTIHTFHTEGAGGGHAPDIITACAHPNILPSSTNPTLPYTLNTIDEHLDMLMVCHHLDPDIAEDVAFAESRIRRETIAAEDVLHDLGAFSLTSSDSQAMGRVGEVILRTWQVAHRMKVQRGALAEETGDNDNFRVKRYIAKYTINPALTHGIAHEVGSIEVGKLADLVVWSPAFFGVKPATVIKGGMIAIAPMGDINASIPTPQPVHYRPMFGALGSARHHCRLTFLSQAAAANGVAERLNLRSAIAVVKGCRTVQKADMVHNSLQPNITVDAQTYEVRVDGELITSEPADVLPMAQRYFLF
# Protocol: The cells were subsequently lysed by sonication, and cell debris was removed with centrifugation (20,000 × g, 10 min). […] Liberated NH3 was quantified using the indophenol-hypocholorite reaction as previously described. The total amount of protein was quantified by Bradford assay using bovine serum albumin as standard. Each assay was performed in duplicate wells.
# FIG S7 Evaluation of Zn-AMA as a direct inhibitor of urease. A) Checkerboard analysis of Zn-AMA and AHA on urease activity of K. […]
# Dose- […]
# response curves of fluorofamide, Zn-AMA, and AMA inhibiting the urease-catalyzed release of NH3 quantified with indophenol hypochlorite. The rates of NH3 production were measured over 20 min and were normalized to total protein concentration. Experiments were performed in duplicate. Individual replicates are shown as colored circles.
# NikA [3] = type: binding, Klebsiella pneumoniae; conditions: 100 μM
# K. pneumoniae = type: cell-based, Klebsiella pneumoniae; conditions: for Growth curve (culture density): 50 μM
# [4] = system: S. aureus urease activity (whole cell); type: cell-based, Staphylococcus aureus; conditions: S. aureus, artificial urine, 24 h
# [5] = system: K. pneumoniae urease activity (whole cell); experiment: Checkerboard analysis of Zn-AMA and AHA on urease activity; type: cell-based, Klebsiella pneumoniae; conditions: Zn-AMA 0 μM
# Protocol: To guide our exploration of the mode of action of Zn-AMA, we investigated whether a chemical-chemical interaction occurs with the urease inhibitor AHA. […] We subsequently performed inductively coupled plasma mass spectrometry (ICP-MS) analyses to evaluate the intracellular Ni^2+ and Zn^2+ content of K. pneumoniae.
# K. pneumoniae whole-cell urease activity was determined with artificial urine containing 0.2% (w/v) casamino acids and 0.01% (w/v) phenol red in 96-well plates. For the growth of S. aureus in artificial urine, the medium was supplemented with 10% LB. After 20–24 hours of growth, bacteria were removed using 0.45 μm filter plates, and the final A550 of the medium was measured using a plate reader.
# FIG S7 Evaluation of Zn-AMA as a direct inhibitor of urease. A) Checkerboard analysis of Zn-AMA and AHA on urease activity of K.
# pneumoniae after growth for 24 h at 37 °C artificial urine. pH is represented by the color scale determined with phenol red. […]
# [6] = K. pneumoniae, artificial urine
# [7] = K. pneumoniae, artificial urine, 24 h
smiles,measurement,setting,value
"CC(C)C[C@@H](C=O)NC(=O)[C@H](CC(C)C)NC(=O)[C@H](CC(C)C)NC(=O)OCc1ccccc1 [MG132, reference compound] (Cbz-Leu-Leu-Leu-aldehyde)",IC50,"HEK293 cells; Homo sapiens, HEK293, 48 h, read-out: IC50 (HEK293 viability)",0.144 µg/mL
same,HEK 293T cytotoxicity assay raw signal,HEK293 cells; MG-132 0.06 μg/mL,553546 and 645337 and 439066
same,HEK 293T cytotoxicity assay raw signal,HEK293 cells; MG-132 0.12 μg/mL,287630 and 290638 and 251825
same,HEK 293T cytotoxicity assay raw signal,HEK293 cells; MG-132 0.24 μg/mL,228174 and 211174 and 145724
same,HEK 293T cytotoxicity assay raw signal,HEK293 cells; MG-132 0.49 μg/mL,127375 and 103739 and 100640
same,HEK 293T cytotoxicity assay raw signal,HEK293 cells; MG-132 0.98 μg/mL,76026 and 78297 and 72041
same,HEK 293T cytotoxicity assay raw signal,HEK293 cells; MG-132 1.95 μg/mL,47803 and 50917 and 47518
same,HEK 293T cytotoxicity assay raw signal,HEK293 cells; MG-132 7.81 μg/mL,52239 and 45457 and 61991
same,HEK 293T cytotoxicity assay raw signal,HEK293 cells; MG-132 15.63 μg/mL,62587 and 49620 and 71962
same,HEK 293T cytotoxicity assay raw signal,HEK293 cells; MG-132 31.25 μg/mL,50870 and 51533 and 85262
N[C@@H](CN[C@@H](CN[C@@H](Cc1cnc[nH]1)C(=O)O)C(=O)O)C(=O)O.[Zn+2] [Zn-AMA(His)],"n (stoichiometry, ITC)",NikA [1],0.76
same,∆H,NikA [1],-13.1 kcal/mol
same,−T∆S,NikA [1],4.5 kcal/mol
same,-∆TS,NikA [1],4.48
same,Kd,NikA [1],0.8 ± 0.1 µM
same,fold improvement of affinity for NikA,NikA [1],7 fold
same,Urease-dependent pH change (pH),[2],7.86 and 7.89 and 7.93 and 7.91
same,EC50,[2]; [6],> 200 µM
same,Urease-dependent pH change (pH),[2]; Zn-AMA(His) 0.19 μM,7.92 and 7.89
same,Urease-dependent pH change (pH),[2]; Zn-AMA(His) 0.39 μM,7.95 and 7.91
same,Urease-dependent pH change (pH),[2]; Zn-AMA(His) 3.12 μM,7.87 and 7.86
same,Urease-dependent pH change (pH),[2]; Zn-AMA(His) 6.25 μM,7.78 and 7.90
same,Urease-dependent pH change (pH),[2]; Zn-AMA(His) 12.5 μM,7.75 and 7.83
same,Urease-dependent pH change (pH),[2]; Zn-AMA(His) 25 μM,7.73 and 7.87
same,Urease-dependent pH change (pH),[2]; Zn-AMA(His) 50 μM,7.68 and 7.86
same,Urease-dependent pH change (pH),[2]; Zn-AMA(His) 100 μM,7.57 and 7.81
same,Urease-dependent pH change (pH),[2]; Zn-AMA(His) 200 μM,7.66 and 7.82
NC(=O)C[C@H](NC[C@H](NC[C@H](N)C(=O)O)C(=O)O)C(=O)O.[Zn+2] [Zn-AMA(Asn)],"n (stoichiometry, ITC)",NikA [1],1.14
same,∆H,NikA [1],-13.1 kcal/mol
same,−T∆S,NikA [1],4.7 kcal/mol
same,-∆TS,NikA [1],4.73
same,Kd,NikA [1],1.3 ± 0.1 µM
same,fold improvement of affinity for NikA,NikA [1],7 fold
same,Urease-dependent pH change (pH),[2],7.81 and 7.93 and 7.88 and 7.95
same,EC50,[2]; [6],24 ± 6 µM
same,Urease-dependent pH change (pH),[2]; Zn-AMA(Asn) 0.19 μM,7.83 and 7.99
same,Urease-dependent pH change (pH),[2]; Zn-AMA(Asn) 0.39 μM,7.94 and 7.95
same,Urease-dependent pH change (pH),[2]; Zn-AMA(Asn) 3.12 μM,7.74 and 7.82
same,Urease-dependent pH change (pH),[2]; Zn-AMA(Asn) 6.25 μM,7.67 and 7.74
same,Urease-dependent pH change (pH),[2]; Zn-AMA(Asn) 12.5 μM,7.43 and 7.67
same,Urease-dependent pH change (pH),[2]; Zn-AMA(Asn) 25 μM,7.11 and 7.36
same,Urease-dependent pH change (pH),[2]; Zn-AMA(Asn) 50 μM,6.62 and 7.12
same,Urease-dependent pH change (pH),[2]; Zn-AMA(Asn) 100 μM,6.33 and 6.91
same,Urease-dependent pH change (pH),[2]; Zn-AMA(Asn) 200 μM,6.43 and 6.83
"NP(N)(=O)NC(=O)c1ccc(F)cc1 [fluorfamide, reference compound]",Specific activity (cell-free indophenol urease assay),urease; Fluorofamide 0.000122 mM,36.97 nmol/min/mg and 30.98 nmol/min/mg
same,Specific activity (cell-free indophenol urease assay),urease; Fluorofamide 0.000244 mM,36.32 nmol/min/mg and 35.04 nmol/min/mg
same,Specific activity (cell-free indophenol urease assay),urease; Fluorofamide 0.000488 mM,34.40 nmol/min/mg and 35.26 nmol/min/mg
same,Specific activity (cell-free indophenol urease assay),urease; Fluorofamide 0.000977 mM,30.98 nmol/min/mg and 33.12 nmol/min/mg
same,Specific activity (cell-free indophenol urease assay),urease; Fluorofamide 0.001953 mM,25.00 nmol/min/mg and 23.72 nmol/min/mg
same,Specific activity (cell-free indophenol urease assay),urease; Fluorofamide 0.003906 mM,16.88 nmol/min/mg
same,Specific activity (cell-free indophenol urease assay),urease; Fluorofamide 0.007813 mM,7.48 nmol/min/mg and 7.26 nmol/min/mg
same,Specific activity (cell-free indophenol urease assay),urease; Fluorofamide 0.015625 mM,2.56 nmol/min/mg and 2.35 nmol/min/mg
same,Specific activity (cell-free indophenol urease assay),urease; Fluorofamide 0.03125 mM,0.85 nmol/min/mg and 0.64 nmol/min/mg
same,Specific activity (cell-free indophenol urease assay),urease; Fluorofamide 0.0625 mM,0.21 nmol/min/mg
"[Cl][Ni][Cl] [Ni^2+, NiCl2]",effect on stability of recombinant NikA,NikA [3],did not affect it
"[Cl-].[Cl-].[Co+2] [Co^2+, CoCl2]",effect on stability of recombinant NikA,NikA [3],did not affect it
N[C@@H](CN[C@@H](CC(=O)O)C(=O)O)C(=O)O.[Zn+2] [Zn-Toxin A],"n (stoichiometry, ITC)",NikA [1],1.15
same,∆G,NikA [1],-7.4 kcal/mol
same,∆H,NikA [1],-9.6 kcal/mol
same,−T∆S,NikA [1],2.2 kcal/mol
same,∆G,NikA [1]; listed as Zn-toxin A,-7.41 kcal/mol
same,∆H,NikA [1]; listed as Zn-toxin A,-9.61 kcal/mol
same,-∆TS,NikA [1],2.20
same,Kd,NikA [1],6 ± 0.8 µM
same,Urease-dependent pH change (pH),[2]; Zn-Toxin A 0.19 μM,7.83 and 7.80
same,Urease-dependent pH change (pH),[2]; Zn-Toxin A 0.39 μM,7.83 and 7.88
same,Urease-dependent pH change (pH),[2]; Zn-Toxin A 0.78 μM,7.88 and 7.78
same,Urease-dependent pH change (pH),[2]; Zn-Toxin A 1.56 μM,7.66 and 7.81
same,Urease-dependent pH change (pH),[2]; Zn-Toxin A 3.12 μM,7.79 and 7.72
same,Urease-dependent pH change (pH),[2]; Zn-Toxin A 6.25 μM,7.83 and 7.77
same,Urease-dependent pH change (pH),[2]; Zn-Toxin A 12.5 μM,7.84 and 7.79
same,Urease-dependent pH change (pH),[2]; Zn-Toxin A 25 μM,7.79 and 7.82
same,Urease-dependent pH change (pH),[2]; Zn-Toxin A 50 μM,7.77 and 7.81
same,Urease-dependent pH change (pH),[2]; Zn-Toxin A 100 μM,7.79 and 7.77
same,Urease-dependent pH change (pH),[2]; Zn-Toxin A 200 μM,7.66 and 7.69
"CC(=NO)C(C)=NO [DMG, dimethylglyoxime, reference compound]",Growth curve (culture density),K. pneumoniae; 15.15 h,0.125 and 0.12
same,Growth curve (culture density),K. pneumoniae; 16.15 h,0.131 and 0.126
same,Growth curve (culture density),K. pneumoniae; 17.15 h,0.14 and 0.136
same,growth with urea as sole nitrogen source,K. pneumoniae; Chelex-treated nitrogen-limited medium,did not
"[Cl-].[Cl-].[Zn+2] [ZnCl2, reference compound]",effect on urease activity,[4],did not affect urease activity
same,effect on stability of recombinant NikA,NikA [3],stabilized NikA
same,K. pneumoniae urease-dependent pH change (pH),"[2]; 0.39 μM, artificial urine, 24 h",8.18 and 8.29
same,K. pneumoniae urease-dependent pH change (pH),"[2]; 0.78 μM, artificial urine, 24 h",8.27 and 8.39
same,K. pneumoniae urease-dependent pH change (pH),"[2]; 1.56 μM, artificial urine, 24 h",8.17 and 8.34
same,K. pneumoniae urease-dependent pH change (pH),"[2]; 3.12 μM, artificial urine, 24 h",8.20 and 8.42
same,K. pneumoniae urease-dependent pH change (pH),"[2]; 6.25 μM, artificial urine, 24 h",8.19 and 8.30
same,K. pneumoniae urease-dependent pH change (pH),"[2]; 12.5 μM, artificial urine, 24 h",8.23 and 8.21
same,K. pneumoniae urease-dependent pH change (pH),"[2]; 25 μM, artificial urine, 24 h",8.25 and 8.11
same,K. pneumoniae urease-dependent pH change (pH),"[2]; 50 μM, artificial urine, 24 h",8.14 and 8.06
same,K. pneumoniae urease-dependent pH change (pH),"[2]; 100 μM, artificial urine, 24 h",8.06 and 8.01
same,K. pneumoniae urease-dependent pH change (pH),"[2]; 200 μM, artificial urine, 24 h",7.51 and 7.49
same,effect on urease activity,[2]; [7],did not affect urease activity
"CC(=O)NO [AHA, acetohydroxamic acid, reference compound]",Urease-dependent pH change (pH),[5]; AHA 0.1 mM,7.94
same,Urease-dependent pH change (pH),[5]; AHA 0.2 mM,8.07
same,Urease-dependent pH change (pH),[5]; AHA 0.4 mM,7.88
same,Urease-dependent pH change (pH),[5]; AHA 0.5 mM,8.25
same,Urease-dependent pH change (pH),[5]; AHA 0.8 mM,7.28
same,Urease-dependent pH change (pH),[5]; AHA 1.6 mM,6.77
same,concentration required to achieve similar urease suppression,[2]; [7],12.8 mM
